Laboratory results from US20240132461A1, “FLAVONE DEAZA SPERMIDINE ANALOGUES AND THEIR USE TREATING CANCER” (FLORATEK PHARMA S.A., priority 2021, published 2024).

Key:
[1] = test system: H69AR; assay: Cell viability assay, resistant small cell lung carcinoma cell line H69AR; assay type: cell-based; conditions: H69AR multiple drug resistant small cell lung carcinoma cell line
Experimental: (§1) Antitumor activity of the compounds and doxorubicin as a positive control was assessed by using the CellTiter-Blue Cell Viability Assay (Promega, #G8082) or CellTiter-Glow® Luminescent Cell Viability assay (Promega # G7572) according to the manufacturer's instructions. The compounds were tested at 5 or 6 concentrations in half-log increments (highest concentration 30 μM-100 μM) in duplicate or triplicate well conditions.
(§2) Tumor cells were grown at 37° C. in a humidified atmosphere with 5% CO2 in RPMI 1640 or DMEM medium, supplemented with 10% (v/v) fetal calf serum and 50 μg/ml gentamicin for up to 20 passages, and were passaged once or twice weekly. Cells were harvested using TrypLE or PBS buffer containing 1 mM EDTA, and the percentage of viable cells is determined using a CASY Model TT cell counter (OMNI Life Science). Cells were harvested from exponential phase cultures, counted and plated in 96 well flat-bottom microtiter plates at a cell density depending on the cell line's growth rate (4,000-20,000 cells/well depending on the cell line's growth rate, up to 60,000 for hematological cancer cell lines) in RPMI 1640 or DMEM medium supplemented with 10% (v/v) fetal calf serum and 50 μg/ml gentamicin (140 μl/well). Cultures were incubated at 37° C. and 5% CO2 in a humidified atmosphere. After 24 h, 10 μl of test compounds or control medium are added, and left on the cells for another 72 h. Compounds were serially diluted in DMSO, transferred in cell culture medium, and added to the assay plates. The DMSO concentration was kept constant at <0.3% v/v across the assay plate. Viability of cells was quantified by the CellTiter-Blue® cell viability assay (Promega G8081) or CellTiter-Glow® Luminescent Cell Viability assay (Promega # G7572). Fluorescence (FU) was measured by using the EnSpire® multimode plate reader (Perkin Elmer) (excitation λ=570 nm, emission λ=600 nm) or luminescent detection of ATP in viable cells was used as parameter for proliferation. Luminescence was measured with the microplate luminometer (Promega or Perkin Elmer).
(§3) Sigmoidal concentration-response curves were fitted to the data points (test-versus-control, T/C values) obtained for each tumor model using 4 parameter non-linear curve fit (Charles River DRS Datawarehouse Software) or with GraphPad prism 5.02 software. IC50 values are reported as absolute IC50 values, being the concentration of test compound at the intersection of the concentration-response curves with T/C=50%
The multiple drug resistant cell line H69AR obtained from ATCC, was established from NCI-H69 cells that were grown in the presence of increasing concentrations of adriamycin (doxorubicin). The H69AR cell line is approximately 50-fold resistant to adriamycin as compared to the parental NCI-H69 cell line. SND141, SND142, SND143, SND146, SND147 and SND148 inhibited the resistant cell line H69AR with IC50s below 5 μM, as presented in Table 8.

[2] = test system: Panc-1; assay: Cell viability assay, pancreatic carcinoma cell line Panc-1; assay type: cell-based; conditions: Homo sapiens; Panc-1 pancreatic carcinoma cell line
Experimental: as §1, §2, §3

[3] = test system: MIA-Pa-Ca-2; assay: Cell viability assay, pancreatic carcinoma cell line MIA-Pa-Ca-2; assay type: cell-based; conditions: Homo sapiens, MIA PaCa-2; MIA-Pa-Ca-2 pancreatic carcinoma cell line
Experimental: as §1, §2, §3

[4] = test system: CH-17-0098; assay: PDX cytotoxicity assay, bile duct PDX CH-17-0098; assay type: cell-based
Experimental: PDX-derived cell cultures were obtained from tumors explanted from mice and isolated by mechanical and enzymatic dissociation. […] Cells were harvested and seeded in 96-wells plates at a density of 1.25 to 5×10^3 cells/well for cytotoxicity assays. Cells were incubated 48 h at 37° C. prior to addition of test molecules and vehicle (DMSO, 0.1%) at desired final concentrations. Cell viability was assessed before drugs' addition (T0) and 5 days after test molecules addition by measuring ATP cell content using CellTiter-Glo® Luminescent Cell Viability Assay (Promega) according to the manufacturer's instructions. Luciferase activity was measured on a luminometer (PerkinElmer® EnVision™). Each concentration of compounds was tested in triplicate.
Viability was calculated as a percentage of ATP value compared to vehicle treated controls.
For PDX primary cell cultures, the tumour tissue was washed with PBS containing antibiotic-antimycotic and non-tumour tissue and necrotic tumour tissues were separated. The tumour tissue was transferred to a new dish and cut into 1˜2 mm^3 fragments, resuspended in RPMI-1640 medium and centrifuged at 1,200 rpm for 6 min at room temperature. The pelleted material was resuspended with 15 mL of Tumour Cell Digestion Solution and incubated at 37° C. for 1 hour with agitation. […]

[5] = In vivo maximum tolerated dose in NOG mice; conditions: for tolerability at the highest dose administered: 8-10 mg/kg i.p., daily or every other day over 8 days; for MTD at 8 days: mouse, in vivo, ip, repeated i.p. administration, MTD not reached, read-out: maximum tolerated dose (MTD), estimated
Experimental: In order to evaluate the general toxicity of selected SND compounds in an animal model, a maximum tolerated dose (MTD) in NOG mice has been undertaken. Three mice per group were treated daily or every other day over 8 days at various doses between 5 mg/kg and 10 mg/kg. Administration of the compounds was i.p. A stock solution of the compounds (40 mg/ml in DMSO) was prepared and frozen at −20° C. in aliquots for each treatment. […] Body weights were measured before each treatment. Mice were further observed for 1 week after the last treatment.

[6] = test system: pancreatic carcinoma cell; assay: Cell viability assay, pancreatic carcinoma cell lines (summary); assay type: cell-based; conditions: summary of Table 12; read-out: IC50s, pancreatic carcinoma cell growth
Experimental: as §1, §2, §3

[7] = test system: RXF 486; assay: Cell viability assay, MDR renal carcinoma patient derived line RXF 486; assay type: cell-based; conditions: RXF 486 MDR renal carcinoma patient derived line
Experimental: as §1
(§4) Tumor cells were grown at 37° C. in a humidified atmosphere with 5% CO2 in RPMI 1640 or DMEM medium, supplemented with 10% (v/v) fetal calf serum and 50 μg/ml gentamicin for up to 20 passages, and were passaged once or twice weekly. Cells were harvested using TrypLE or PBS buffer containing 1 mM EDTA, and the percentage of viable cells is determined using a CASY Model TT cell counter (OMNI Life Science). Cells were harvested from exponential phase cultures, counted and plated in 96 well flat-bottom microtiter plates at a cell density depending on the cell line's growth rate (4,000-20,000 cells/well depending on the cell line's growth rate, up to 60,000 for hematological cancer cell lines) in RPMI 1640 or DMEM medium supplemented with 10% (v/v) fetal calf serum and 50 μg/ml gentamicin (140 μl/well). […] Viability of cells was quantified by the CellTiter-Blue® cell viability assay (Promega G8081) or CellTiter-Glow® Luminescent Cell Viability assay (Promega # G7572). […]

[8] = test system: CALU-6; assay: Cell viability assay, non-small cell lung carcinoma cell line CALU-6; assay type: cell-based; conditions: Homo sapiens; CALU-6 non-small cell lung carcinoma cell line
Experimental: as §1, §2, §3

[9] = test system: lung carcinoma cell; assay: Cell viability assay, lung carcinoma cell lines (summary); assay type: cell-based; conditions: summary of Tables 7A-E; read-out: IC50s, lung carcinoma cell growth
Experimental: as §1, §2, §3

[10] = test system: H69AR; conditions: H69AR from ATCC, vs parental NCI-H69; cited from earlier work
[11] = test system: IMR-5-75; assay: Cell viability assay, brain carcinoma cell line IMR-5-75; assay type: cell-based; conditions: IMR-5-75 brain carcinoma cell line
Experimental: as §1, §4

[12] = test system: NCI-H1299; assay: Cell viability assay, non-small cell lung carcinoma cell line NCI-H1299; assay type: cell-based; conditions: Homo sapiens
Experimental: as §1, §2, §3

[13] = test system: SK-OV-3; assay: Cell viability assay, ovarian carcinoma cell line SK-OV-3; assay type: cell-based
Experimental: as §1, §4

[14] = test system: MeWo; assay: Cell viability assay, melanoma cell line MeWo; assay type: cell-based; conditions: Homo sapiens
Experimental: as §1
as §2, with “Elmer). […]” for “Elmer).”

[15] = test system: A375; assay: Cell viability assay, melanoma cell line A375; assay type: cell-based; conditions: Homo sapiens, A-375
Experimental: as §1, §2, §3

[16] = test system: melanoma cell lines; assay: Cell viability assay, melanoma cell lines (summary); assay type: cell-based; conditions: summary of Tables 14A and 14B; read-out: IC50s, melanoma cell lines growth
Experimental: as §1, §2, §3

IC50 [9] | Structure (SMILES) | IC50 [1] | IC50 ([1]; Homo sapiens, H69AR) | IC50 [2] | IC50 [3] | tolerability at the highest dose administered [5] | MTD at 8 days [5] | IC50 [6] | IC50 [7] | also measured
– | COc1c(O)ccc2c(=O)cc(-c3ccc(CCCCN4CCCCC4)cc3)oc12 [SND148, 7-hydroxy-8-methoxy-2-(4-(4-(piperidin-1-yl)butyl)phenyl)-4H-chromen-4-one] | 2.5 µM | < 5 µM | 2.3 µM | 2.21 µM | well tolerated | > 10 mg/kg | < 10 µM | – | IC50 [4]: 13.9 µM
– | COc1c(O)ccc2c(=O)cc(-c3ccc(CCCCN4CCCC4)cc3)oc12 [SND143, 7-hydroxy-8-methoxy-2-(4-(4-(pyrrolidin-1-yl)butyl)phenyl)-4H-chromen-4-one] | 3.3 µM | < 5 µM | 6.09 µM | 4.96 µM | well tolerated | > 10 mg/kg | < 10 µM | 1.3 µM | –
< 20 µM | COc1c(O)ccc2c(=O)cc(-c3ccc(CCCCN(C)CCN4CCCCC4)cc3)oc12 [SND146, 7-Hydroxy-8-methoxy-2-(4-(4-(methyl(2-(piperidin-1-yl)ethyl)amino)butyl)phenyl)-4H-chromen-4-one] | – | – | 1.2 µM | 0.87 µM | – | – | < 10 µM | 0.4 µM | IC50 [8]: 17.2 µM
– | COc1cccc2c1C(=O)c1c(O)c3c(c(O)c1C2=O)C[C@@](O)(C(=O)CO)C[C@@H]3O[C@H]1C[C@H](N)[C@H](O)[C@H](C)O1 [adriamycin] | – | – | – | – | – | – | – | – | resistance of H69AR compared to the parental NCI-H69 cell line [10]: approximately 50 fold
< 20 µM | COc1c(O)ccc2c(=O)cc(-c3ccc(CCCCNCCNCCCN)cc3)oc12 [SND211] | – | – | – | – | – | – | – | – | IC50 [11]: 1.5 µM; IC50 [12]: 1.8 µM; IC50 ([13]; Homo sapiens, SK-OV-3, SK-OV-3 ovarian carcinoma cell line): < 20 µM; IC50 ([13]; SK-OV-3 ovarian carcinoma cell line): 10.6 µM; IC50 [14]: 5.3 µM; IC50 [15]: 1.8 µM; IC50 [16]: < 10 µM
